For data set [1], the target named is human platelet rich plasma (PRP) (Homo sapiens, UniProt P05106+P08514). Put plainly: In Vitro Human Platelet Aggregation Assay. The settings on record: for platelet aggregation inhibition potency, result in words: human platelet aggregation in vitro. In kind it is cell-based. The protocol: Platelet aggregation assays are performed in human platelet rich plasma (PRP). Fifty milliliters of whole human blood (9 parts) is drawn on 3.6% sodium citrate (1 part) from a donor who has not taken aspirin or related medications for at least two weeks. The blood is centrifuged at 160×g for 10 minutes at 22° C. and allowed to stand for 5 minutes after which the PRP is decanted. Platelet poor plasma (PPP) is isolated from the remaining blood after centrifugation at 2000×g for 25 minutes. The platelet count of the PRP is diluted to about 300,000 platelets per microliter with PPP.
A 225 μl aliquot of PRP plus 25 μl of either a dilution of the test inhibitor sample or a control (PBS) is incubated for 5 minutes in a Chrono-log Whole Blood Aggregometer at 25° C. An aggregating agent (collagen, 1 μg/ml; U46619, 100 ng/ml; or ADP, 17 μM) is added and the transmission is recorded.

Data set [2] has as its system platelet rich plasma (PRP). Put plainly: Rabbit ex-vivo platelet aggregation (XPA), ADP-induced. In kind it is in vivo. The settings on record: Example 1. The protocol: (§1) Catheters are flushed and locked after every sample.
[…] of PRP is placed in a disposable glass cuvette with a stir bar. The cuvette is placed in the temperature regulated light path of a light transmittance aggregometer (Chrono-log) and equilibrated to a 37° C. Baseline transmittance is recorded for 30 seconds, after which […] of ADP (1 mM) is added and the change in transmittance recorded. The maximum change from baseline (dT) is noted for each sample. The extent of inhibition of XPA that is produced by an inhibitor is calculated for each animal as follows: Mean dTs are calculated for the pre and post infusion values, and then, percent inhibition is calculated as (1-dt (post)/ddt (pre))×100.

The test system of a further data set is Beagle dogs. Put plainly: Bleeding time, dog model. Format: in vivo. How it is done:
Beagle dogs were premedicated with atropine (3 mg subcutaneously) and anesthetized with intravenous sodium pentobarbital solution (65 mg/ml, to effect, induction and maintenance). The dogs were placed in dorsal recumbency on heating pads, intubated, and placed on oxygen-room air mixture (free breathing). A pulse oximeter was attached and heart rate and oxygen saturation monitored. An indwelling catheter was placed in one cephalic vein through which normal saline drip (for patency) and maintenance anesthetic doses were administered, and in one saphenous vein through which test or control compound was bolused or infused.
At several timepoints bleeding times were measured. The forearm of the dog was closely shaven. A Surgicutt® automatic bleeding time device was employed to make an approximate 1 cm clean incision through the skin. Blood was blotted with the edge of a Whatman's #4 filter paper every 15 seconds. Bleeding time was measured as the time from incision to the last time blood was absorbed by the filter paper.

The subject of data set [3] is New Zealand White rabbits. The experiment in a line: Rabbit peripheral blood flow (PBF) by observation of ear vessels. In kind it is in vivo. How it is done:
as §1
For the experiments summarized in Table 1, PBF was monitored by observation of the condition of the blood vessels in the rabbits' ears, prior to and during the infusion. Normal flow is defined as ears that appear pink to red, with no visible constriction of the major blood vessels. Decreased flow applies to ears that have constricted vessels resulting in cold, pallid ears for up to 40 minutes following the start of the inhibitor infusion.

Where [4] appears, read: human PRP, read-out: Human Platelet Aggregation IC50.

The text below walks through data of US5493007A, “Platelet aggregation inhibitors having high specificity for GPIIBIIIA” (Genentech, Inc., priority 1994, dated 1996).

“And” between values parts separate entries of the source, which are not always exact repeats. Equal values may be shown once. Read-outs that look alike come from different tables or passages of the source. *1 amine or outer side, *2 acyl side, *3 side chain or, on linkers, in order; H or OH if unused. Where a SMILES comes first, the peptide text is derived from it. Bridges are numbered along the chain shown (N, C = ends). [ ]: non-standard residue; d: D form. The star is where a group is joined. Ethylenediamine = C(CN[*:2])N[*:1]; Aad = N[C@@H](CCCC(=O)O)C(=O)O; Pen = CC(C)(S)[C@H](N)C(=O)O; dOrn = NCCC[C@@H](N)C(=O)O; NH(CH2)5NH2 = NCCCCCN*; NH(CH2)4NH2 = NCCCCN*; NH(CH2)3NH2 = NCCCN*; Ava = NCCCCC(=O)O

Chain of human platelet rich plasma (PRP) (P08514 32-1039): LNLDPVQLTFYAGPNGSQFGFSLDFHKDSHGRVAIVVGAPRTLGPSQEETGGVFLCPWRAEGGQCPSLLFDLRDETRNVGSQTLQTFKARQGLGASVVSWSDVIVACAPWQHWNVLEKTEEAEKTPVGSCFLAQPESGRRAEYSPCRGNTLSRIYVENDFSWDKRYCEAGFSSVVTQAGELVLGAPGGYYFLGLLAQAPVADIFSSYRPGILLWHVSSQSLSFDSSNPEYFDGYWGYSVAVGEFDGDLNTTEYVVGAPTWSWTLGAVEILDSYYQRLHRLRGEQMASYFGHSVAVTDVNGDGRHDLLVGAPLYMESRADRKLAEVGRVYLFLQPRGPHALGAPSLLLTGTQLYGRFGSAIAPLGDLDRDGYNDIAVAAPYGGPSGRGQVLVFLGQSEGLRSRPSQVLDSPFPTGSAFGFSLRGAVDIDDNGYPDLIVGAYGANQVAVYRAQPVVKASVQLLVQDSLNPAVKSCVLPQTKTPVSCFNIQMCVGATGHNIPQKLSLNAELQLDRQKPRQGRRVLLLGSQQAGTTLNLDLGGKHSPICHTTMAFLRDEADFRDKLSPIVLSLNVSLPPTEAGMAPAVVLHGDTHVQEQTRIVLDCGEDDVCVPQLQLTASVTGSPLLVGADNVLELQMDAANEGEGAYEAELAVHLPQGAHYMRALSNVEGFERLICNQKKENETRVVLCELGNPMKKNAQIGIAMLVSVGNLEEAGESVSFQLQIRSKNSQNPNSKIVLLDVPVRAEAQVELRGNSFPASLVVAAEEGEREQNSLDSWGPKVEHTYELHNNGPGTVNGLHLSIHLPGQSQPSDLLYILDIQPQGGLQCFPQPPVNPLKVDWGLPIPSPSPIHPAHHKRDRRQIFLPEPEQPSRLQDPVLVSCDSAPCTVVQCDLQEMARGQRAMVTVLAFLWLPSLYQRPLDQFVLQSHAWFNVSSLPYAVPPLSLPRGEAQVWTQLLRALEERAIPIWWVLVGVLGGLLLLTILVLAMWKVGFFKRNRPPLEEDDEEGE
Chain of human platelet rich plasma (PRP) (P05106 27-788): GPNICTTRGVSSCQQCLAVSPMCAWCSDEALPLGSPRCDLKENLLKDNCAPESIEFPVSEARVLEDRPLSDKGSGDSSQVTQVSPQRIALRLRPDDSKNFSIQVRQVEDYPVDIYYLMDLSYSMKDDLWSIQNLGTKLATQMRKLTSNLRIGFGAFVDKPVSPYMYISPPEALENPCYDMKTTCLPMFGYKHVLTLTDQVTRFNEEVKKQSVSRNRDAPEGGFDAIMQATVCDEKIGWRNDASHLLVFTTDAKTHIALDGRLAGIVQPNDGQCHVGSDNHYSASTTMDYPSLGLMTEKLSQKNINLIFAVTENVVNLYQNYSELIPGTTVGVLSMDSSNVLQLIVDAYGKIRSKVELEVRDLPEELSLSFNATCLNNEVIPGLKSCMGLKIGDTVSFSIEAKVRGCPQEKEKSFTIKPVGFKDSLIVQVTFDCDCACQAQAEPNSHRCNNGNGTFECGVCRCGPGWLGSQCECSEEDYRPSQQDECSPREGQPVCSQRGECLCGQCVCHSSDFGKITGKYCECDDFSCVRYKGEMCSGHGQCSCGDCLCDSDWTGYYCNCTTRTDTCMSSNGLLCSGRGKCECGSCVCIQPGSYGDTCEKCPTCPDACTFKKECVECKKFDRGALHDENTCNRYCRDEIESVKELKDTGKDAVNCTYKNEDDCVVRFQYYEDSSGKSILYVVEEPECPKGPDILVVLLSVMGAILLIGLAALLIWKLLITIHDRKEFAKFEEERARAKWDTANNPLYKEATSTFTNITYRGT

The IC50 is the midpoint of a concentration-inhibition curve. Take `N=C(N)NCCC[C@@H]1NC(=O)[C@@H](Cc2ccc(O)cc2)NC(=O)C(CCCCN)SC[C@@H](C(=O)O)NC(=O)[C@H](CC(=O)O)NC(=O)CNC1=O` (single isomer, unassigned) [9/10, cyclo-S-2-L-(6-aminocaproyl)-Lys--dTyr--Arg--Gly--Asp--Cys--OH]: the IC50 in data set [1] (setting [4]) was determined as 498 nM. Moreover, the “Rabbit % P.A. Inhibition (ex vivo)” value in data set [2] came to 100%. For `N=C(N)NCCC[C@@H]1NC(=O)[C@@H](Cc2ccc(O)cc2)NC(=O)C(CCCCN)SC[C@@H](C(=O)O)NC(=O)[C@H](CC(=O)O)NC(=O)CNC1=O` (single isomer, unassigned) [9/11, cyclo-S-2-L-(6-aminocaproyl)-Lys--dTyr--Arg--Gly--Asp--Cys--OH], the IC50 in data set [1] (setting [4]) worked out at 3180 nM. With `N=C(N)NCCC[C@H](NC(=O)[C@@H]1CSCC(=O)N[C@H](Cc2ccc(O)cc2)C(=O)N[C@@H](CCCNC(=N)N)C(=O)NCC(=O)N[C@@H](CC(=O)O)C(=O)N1)C(N)=O` [7/1, cyclo-S-acetyl-dTyr--Arg--Gly--Asp--Cys--Arg--NH2] ({CH2CO}-[dY]RGDCR-NH2; thioether N-5), the “bleeding time, preinfusion value” in the data set with Beagle dogs (before infusion (baseline)) is 3 min. In the data set with Beagle dogs (dose printed for 7/46: bolus 125 μg/kg plus 3 μg/kg/min, 7/1 value is a mean), the “bleeding time during the infusion” value was 6.25 min. For the same molecule, the “peripheral blood flow, result in words” value in data set [3] was “no substantial increase in cutaneous bleeding time (1.17 times; dosed to 100% inhibition of platelet aggregation) or decrease in peripheral blood flow”. Besides, the half-maximal inhibitory concentration (IC50) in data set [1] (setting [4]) was 80 nM and 83 nM. Besides, in data set [1], the “platelet aggregation inhibition potency, result in words” value is recorded as “equipotent”. Further, in data set [2], the “Rabbit % P.A. Inhibition (ex vivo)” value is listed as 100%.

In the case of `N=C(N)NCCC[C@@H]1NC(=O)[C@@H](Cc2ccc(O)cc2)NC(=O)CSC[C@@H](C(=O)N[C@H](CCCN)C(N)=O)NC(=O)[C@H](CC(=O)O)NC(=O)CNC1=O` [7/6, cyclo-S-acetyl-dTyr--Arg--Gly--Asp--Cys--dOrn--NH2] ({CH2CO}-[dY]RGDC[dOrn]-NH2; thioether N-5), the IC50 in data set [1] (setting [4]) was 1180 nM.

In the case of `N=C(N)NCCC[C@H](NC(=O)[C@H](Cc1ccc(O)cc1)NC(=O)[C@@H]1CSCC(=O)N[C@H](Cc2ccc(O)cc2)C(=O)N[C@@H](CCCNC(=N)N)C(=O)NCC(=O)N[C@@H](CC(=O)O)C(=O)N1)C(N)=O` [7/7, cyclo-S-acetyl-dTyr--Arg--Gly--Asp--Cys--Tyr--Arg--NH2] ({CH2CO}-[dY]RGDCYR-NH2; thioether N-5), the “Rabbit % P.A. Inhibition (ex vivo)” value in data set [2] is recorded as 98%. On to `CC1(C)SCC(=O)N[C@H](Cc2ccc(O)cc2)C(=O)N[C@@H](CCCCN)C(=O)NCC(=O)N[C@@H](CC(=O)O)C(=O)N[C@@H]1C(=O)N[C@@H](CCCNC(=N)N)C(N)=O` [7/16, cyclo-S-acetyl-dTyr--Lys--Gly--Asp--Pen--Arg--NH2] ({CH2CO}-[dY]KGD[Pen]R-NH2; thioether N-5), for which the “peripheral blood flow, result in words” value in data set [3] was “without substantial increased cutaneous bleeding time or decreased peripheral blood flow”. Also, in data set [1] (setting [4]), the IC50 was 500 nM and 506 nM. As for `CC1(C)SCC(=O)N[C@H](Cc2ccc(O)cc2)C(=O)N[C@@H](CCCCN)C(=O)NCC(=O)N[C@@H](CC(=O)O)C(=O)N[C@@H]1C(=O)N[C@@H](CCCCN)C(N)=O` [7/17, cyclo-S-acetyl-dTyr--Lys--Gly--Asp--Pen--Lys--NH2] ({CH2CO}-[dY]KGD[Pen]K-NH2; thioether N-5), the “peripheral blood flow, result in words” value in data set [3] was “without substantial increased cutaneous bleeding time or decreased peripheral blood flow”. Moreover, the IC50 in data set [1] (setting [4]) turned out to be 90 nM. Moreover, the “Rabbit % P.A. Inhibition (ex vivo)” value in data set [2] is listed as 100%. Regarding `N=C(N)NCCC[C@@H]1NC(=O)[C@@H](Cc2ccc(O)cc2)NC(=O)CSC[C@@H](C(=O)N[C@@H](CCC(N)=O)C(N)=O)NC(=O)[C@H](CC(=O)O)NC(=O)CNC1=O` [7/27, cyclo-S-acetyl-dTyr--Arg--Gly--Asp--Cys--Gln--NH2] ({CH2CO}-[dY]RGDCQ-NH2; thioether N-5), the IC50 in data set [1] (setting [4]) amounted to 1760 nM. The “platelet aggregation inhibition potency, result in words” value in data set [1] was “did not significantly improve potency”. Besides, the “Rabbit % P.A. Inhibition (ex vivo)” value in data set [2] is 72% and 99%. On to `N=C(N)NCCC[C@@H]1NC(=O)[C@@H](Cc2ccc(O)cc2)NC(=O)CSC[C@@H](C(=O)NCCCCC(=O)O)NC(=O)[C@H](CC(=O)O)NC(=O)CNC1=O` [7/28, cyclo-S-(1-5)-dTyr--Arg--Gly--Asp--Cys--X (X = aminovaleric acid)] ({CH2CO}-[dY]RGDC[Ava]-OH; thioether N-5), for which the IC50 in data set [1] (read-out: platelet aggregation inhibition IC50) amounted to 52200 nM. Regarding `N=C(N)NCCC[C@@H]1NC(=O)[C@@H](Cc2ccc(O)cc2)NC(=O)CSC[C@@H](C(=O)NCCCCN)NC(=O)[C@H](CC(=O)O)NC(=O)CNC1=O` [8/12, cyclo-S-acetyl-dTyr--Arg--Gly--Asp--Cys--NH--X (X = butylamine)] ({CH2CO}-[dY]RGDC-{NH(CH2)4NH2}; thioether N-5), the IC50 in data set [1] (setting [4]) was 390 nM. On the same count and under the same terms, the figure for `N=C(N)NCCC[C@@H]1NC(=O)[C@@H](Cc2ccc(O)cc2)NC(=O)CSC[C@@H](C(=O)NCCCCCN)NC(=O)[C@H](CC(=O)O)NC(=O)CNC1=O` [8/13, cyclo-S-acetyl-dTyr--Arg--Gly--Asp--Cys--NH--X (X = pentylamine)] ({CH2CO}-[dY]RGDC-{NH(CH2)5NH2}; thioether N-5) is 590 nM. Same read-out and setting: the figure for `N=C(N)NCCC[C@@H]1NC(=O)[C@@H](Cc2ccc(O)cc2)NC(=O)CSC[C@@H](C(=O)NCCCN)NC(=O)[C@H](CC(=O)O)NC(=O)CNC1=O` [8/22, cyclo-S-acetyl-dTyr--Arg--Gly--Asp--Cys--NH--X (X = propyl amine)] ({CH2CO}-[dY]RGDC-{NH(CH2)3NH2}; thioether N-5) is 387 nM; for `N=C(N)NCCC[C@@H]1NC(=O)[C@@H](Cc2ccc(O)cc2)NC(=O)CSC[C@@H](C(=O)NCCN)NC(=O)[C@H](CC(=O)O)NC(=O)CNC1=O` [8/23, cyclo-S-acetyl-dTyr--Arg--Gly--Asp--Cys--NH--X (X = ethyl amine)] ({CH2CO}-[dY]RGDC-Ethylenediamine; thioether N-5) it is 470 nM; for `N=C(N)NCCC[C@H](NC(=O)[C@@H]1CCCC(=O)N[C@H](Cc2ccc(O)cc2)C(=O)N[C@@H](CCCNC(=N)N)C(=O)NCC(=O)N[C@@H](CC(=O)O)C(=O)N1)C(N)=O` [10/19, cyclo(1-5)dTyr--Arg--Gly--Asp--L-α-aminoadipic acid-Arg--NH2] ([dY]RGD[Aad]R-NH2; lactam N-5) it is 180 nM and 205 nM. For the molecule `N=C(N)NCCC[C@@H]1NC(=O)[C@@H](Cc2ccc(O)cc2)NC(=O)CCC[C@@H](C(=O)N[C@@H](CCCCN)C(N)=O)NC(=O)[C@H](CC(=O)O)NC(=O)CNC1=O` [10/20, cyclo(1-5)dTyr--Arg--Gly--Asp--L-α-aminoadipic acid-Lys--NH2] ([dY]RGD[Aad]K-NH2; lactam N-5), the IC50 in data set [1] (setting [4]) was 183 nM. For the same molecule, in data set [2], the “Rabbit % P.A. Inhibition (ex vivo)” value is 100%.
